Measurements: patent US10670605B2, “Cysteine reactive probes and uses thereof” (The Scripps Research Institute, priority 2015, dated 2020)
Where “and” joins values, the source holds several entries; their conditions need not be identical. Identical values can stand only once.

Assays:
Experiment in all cases: Competitive isoTOP-ABPP, cell lysates
Assay type in all cases: binding
KDM4B C694 (O94953) = molecular target: T1, KDM4B C694 (O94953) (Homo sapiens, UniProt O94953); settings: for isoTOP-ABPP reactivity ratio, O94953_C694 / isoTOP-ABPP reactivity profile ratio, O94953_C694: 500 μm
T1 sequence (O94953 1-1096): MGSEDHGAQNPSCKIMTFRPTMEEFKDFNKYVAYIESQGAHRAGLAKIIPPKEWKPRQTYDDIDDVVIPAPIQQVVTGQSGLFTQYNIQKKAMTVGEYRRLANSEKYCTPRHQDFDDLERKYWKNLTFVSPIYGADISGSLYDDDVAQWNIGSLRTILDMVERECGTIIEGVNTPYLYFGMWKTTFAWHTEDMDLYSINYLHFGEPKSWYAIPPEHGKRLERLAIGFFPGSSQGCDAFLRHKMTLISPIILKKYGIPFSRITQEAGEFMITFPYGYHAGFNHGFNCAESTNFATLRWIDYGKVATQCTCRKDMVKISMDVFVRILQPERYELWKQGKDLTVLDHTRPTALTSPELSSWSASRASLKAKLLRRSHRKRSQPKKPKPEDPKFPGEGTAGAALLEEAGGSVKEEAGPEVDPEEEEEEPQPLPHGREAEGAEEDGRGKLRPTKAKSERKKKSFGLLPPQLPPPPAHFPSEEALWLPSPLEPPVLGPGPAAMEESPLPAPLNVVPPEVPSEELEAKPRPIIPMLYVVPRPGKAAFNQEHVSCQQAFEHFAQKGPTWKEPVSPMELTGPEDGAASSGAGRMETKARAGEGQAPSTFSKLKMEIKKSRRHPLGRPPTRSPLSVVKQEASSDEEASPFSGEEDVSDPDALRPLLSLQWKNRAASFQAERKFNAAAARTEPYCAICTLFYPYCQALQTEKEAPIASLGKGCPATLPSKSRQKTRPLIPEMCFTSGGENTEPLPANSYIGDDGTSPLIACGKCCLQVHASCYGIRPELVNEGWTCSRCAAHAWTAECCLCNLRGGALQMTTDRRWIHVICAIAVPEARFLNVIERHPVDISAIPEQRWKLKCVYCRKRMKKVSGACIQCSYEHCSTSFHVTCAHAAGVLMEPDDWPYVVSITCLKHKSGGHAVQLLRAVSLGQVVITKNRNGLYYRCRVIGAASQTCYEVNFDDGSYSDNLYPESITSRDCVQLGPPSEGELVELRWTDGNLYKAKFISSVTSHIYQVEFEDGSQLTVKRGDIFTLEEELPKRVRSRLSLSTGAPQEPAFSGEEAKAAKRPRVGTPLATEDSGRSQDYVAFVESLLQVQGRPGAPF

CYR61 C39 (O00622) = molecular target: T2, CYR61 C39 (O00622) (Homo sapiens, UniProt O00622); settings: for R value (DMSO/fragment): in vitro, MDA-MB-231; for isoTOP-ABPP ratio, O00622_C39: invitro, 231; for isoTOP-ABPP ratio (reactivity profile), O00622_C39: 500 μm in-vitro ramos_231; for isoTOP-ABPP reactivity ratio, O00622_C39 / isoTOP-ABPP reactivity profile ratio, O00622_C39: 500 μm, in-vitro_ramos_231
T2 sequence (O00622 25-381): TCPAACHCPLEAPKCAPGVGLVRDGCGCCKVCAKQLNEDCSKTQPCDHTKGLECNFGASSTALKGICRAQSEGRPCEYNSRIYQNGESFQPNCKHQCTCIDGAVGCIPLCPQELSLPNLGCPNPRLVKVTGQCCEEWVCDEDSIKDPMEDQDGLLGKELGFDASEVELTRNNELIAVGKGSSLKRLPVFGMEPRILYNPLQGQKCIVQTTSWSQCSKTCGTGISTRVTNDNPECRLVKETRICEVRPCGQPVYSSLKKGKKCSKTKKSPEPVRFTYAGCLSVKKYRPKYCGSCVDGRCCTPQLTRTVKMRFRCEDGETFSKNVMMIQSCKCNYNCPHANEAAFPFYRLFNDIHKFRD

IRF8 C306 (Q02556) = molecular target: T3, IRF8 C306 (Q02556) (Homo sapiens, UniProt Q02556); settings: for isoTOP-ABPP reactivity ratio, Q02556_C306 / isoTOP-ABPP reactivity profile ratio, Q02556_C306: 500 μm, in-vitro_ramos
T3 sequence (Q02556 1-426): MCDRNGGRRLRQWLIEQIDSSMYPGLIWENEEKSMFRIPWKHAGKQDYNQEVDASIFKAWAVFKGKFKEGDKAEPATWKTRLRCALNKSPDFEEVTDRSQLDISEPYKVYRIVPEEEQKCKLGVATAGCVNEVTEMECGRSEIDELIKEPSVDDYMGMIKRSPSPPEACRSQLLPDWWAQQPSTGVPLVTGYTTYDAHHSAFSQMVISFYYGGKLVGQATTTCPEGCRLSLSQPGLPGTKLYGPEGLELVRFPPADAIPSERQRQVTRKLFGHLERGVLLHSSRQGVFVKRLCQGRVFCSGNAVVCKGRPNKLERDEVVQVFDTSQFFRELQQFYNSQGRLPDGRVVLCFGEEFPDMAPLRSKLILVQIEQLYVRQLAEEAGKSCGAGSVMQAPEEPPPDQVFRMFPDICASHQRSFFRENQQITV

## COc1ccc2c(c1)CCCN2C(=O)CCl [compound 2]
KDM4B C694 (O94953); 500 μM, in vitro, MDA-MB-231
  R value (DMSO/fragment): 20.0
KDM4B C694 (O94953); 500 μM, invitro, ramos
  R value (DMSO/fragment): 5.1

## O=C(CCl)Nc1cc(C(F)(F)F)cc(C(F)(F)F)c1 [compound 3]
CYR61 C39 (O00622); 500 μM
  R value (DMSO/fragment): 4.0
IRF8 C306 (Q02556); 500 μM, invitro, ramos
  R value (DMSO/fragment): 5.6
KDM4B C694 (O94953); 500 μM, in vitro, MDA-MB-231
  R value (DMSO/fragment): 20.0
KDM4B C694 (O94953); 500 μM, invitro, ramos
  R value (DMSO/fragment): 7.4

## COc1ccc(C2CC(c3cccs3)=NN2C(=O)CCl)cc1 (stereo not shown) [compound 4]
CYR61 C39 (O00622); 250 μM
  R value (DMSO/fragment): 2.8
KDM4B C694 (O94953); 250 μM, in vitro, MDA-MB-231
  R value (DMSO/fragment): 20.0

## C=CC(=O)N(c1ccccc1)c1ccc(Br)cc1 [compound 5]
IRF8 C306 (Q02556); 500 μM, invitro, ramos
  isoTOP-ABPP ratio, Q02556_C306: 2.6

## CNS(=O)(=O)C=Cc1ccc2c(ccn2Cc2ccccc2)c1 [compound 6]
KDM4B C694 (O94953); 500 μM, invitro, 231
  isoTOP-ABPP ratio, O94953_C694: 1.1

## O=C(CCl)N1CCN(S(=O)(=O)c2ccccc2F)CC1 [compound 10]
IRF8 C306 (Q02556); 500 μM, invitro, ramos
  isoTOP-ABPP ratio, Q02556_C306: 3.6
KDM4B C694 (O94953); 500 μM, invitro, ramos
  isoTOP-ABPP ratio, O94953_C694: 1.4

## Cn1cc(S(=O)(=O)N2CCOCC2)cc1C(=O)NC(=O)CCl [compound 11]
CYR61 C39 (O00622); 500 μM
  isoTOP-ABPP ratio, O00622_C39: 9.6
IRF8 C306 (Q02556); 500 μM, invitro, ramos
  isoTOP-ABPP ratio, Q02556_C306: 3.1
KDM4B C694 (O94953); 500 μM, invitro, ramos
  isoTOP-ABPP ratio, O94953_C694: 1.9

## O=C(CCl)NCCc1c[nH]c2ccccc12 [compound 13]
CYR61 C39 (O00622); 500 μM
  isoTOP-ABPP ratio, O00622_C39: 1.2
IRF8 C306 (Q02556); 500 μM, invitro, ramos
  isoTOP-ABPP ratio, Q02556_C306: 0.7
KDM4B C694 (O94953); 500 μM, invitro, 231
  isoTOP-ABPP ratio, O94953_C694: 1.4
KDM4B C694 (O94953); 500 μM, invitro, ramos
  isoTOP-ABPP ratio, O94953_C694: 1.1

## C=CC(=O)N(Cc1cccnc1)c1ccc(Oc2ccccc2)c(C(F)(F)F)c1 [compound 15]
IRF8 C306 (Q02556); 500 μm in-vitro ramos
  isoTOP-ABPP ratio (reactivity profile), Q02556_C306: 2.1
KDM4B C694 (O94953); 500 μm in-vitro ramos
  isoTOP-ABPP ratio (reactivity profile), O94953_C694: 1.1

## O=C(CCl)N1CCC(C(O)(c2ccccc2)c2ccccc2)CC1 [compound 20]
IRF8 C306 (Q02556); 500 μm in-vitro ramos
  isoTOP-ABPP ratio (reactivity profile), Q02556_C306: 2.1
KDM4B C694 (O94953); 500 μm in-vitro ramos
  isoTOP-ABPP ratio (reactivity profile), O94953_C694: 2.0
KDM4B C694 (O94953); 500 μm in-vitro ramos_231
  isoTOP-ABPP ratio (reactivity profile), O94953_C694: 2.8

## O=C(CCl)NC12CC3CC(CC(C3)C1)C2 [compound 21]
KDM4B C694 (O94953); 500 μm in-vitro ramos
  isoTOP-ABPP ratio (reactivity profile), O94953_C694: 1.8

## N#C/C(=C\c1cc(C(F)(F)F)cc(C(F)(F)F)c1)C(N)=O [compound 23]
CYR61 C39 (O00622)
  isoTOP-ABPP ratio (reactivity profile), O00622_C39: 4.4
KDM4B C694 (O94953); 500 μm in-vitro ramos
  isoTOP-ABPP ratio (reactivity profile), O94953_C694: 3.2

## CC(Br)C(=O)Nc1cc(C(F)(F)F)cc(C(F)(F)F)c1 (stereo not shown) [compound 24]
IRF8 C306 (Q02556); 500 μm in-vitro ramos
  isoTOP-ABPP ratio (reactivity profile), Q02556_C306: 1.2

## CC(Cl)C(=O)Nc1cc(C(F)(F)F)cc(C(F)(F)F)c1 (stereo not shown) [compound 25]
CYR61 C39 (O00622)
  isoTOP-ABPP ratio (reactivity profile), O00622_C39: 1.0

## CC(C)CCOCCNC(=O)CCl [compound 27]
CYR61 C39 (O00622)
  isoTOP-ABPP ratio (reactivity profile), O00622_C39: 1.0
IRF8 C306 (Q02556); 500 μm in-vitro ramos_231
  isoTOP-ABPP ratio (reactivity profile), Q02556_C306: 1.1
KDM4B C694 (O94953); 500 μm in-vitro ramos_231
  isoTOP-ABPP ratio (reactivity profile), O94953_C694: 1.4 and 1.0

## COc1ccccc1OCCNC(=O)CCl [compound 28]
CYR61 C39 (O00622)
  isoTOP-ABPP ratio (reactivity profile), O00622_C39: 1.0

## O=C(CCl)N1CCN(CC(=O)N2CCOCC2)CC1 [compound 29]
KDM4B C694 (O94953); 500 μm in-vitro ramos_231
  isoTOP-ABPP ratio (reactivity profile), O94953_C694: 1.2

## CCN(CC)c1ccc(S(N)(=O)=O)cc1NC(=O)CCl [compound 30]
IRF8 C306 (Q02556)
  isoTOP-ABPP reactivity ratio, Q02556_C306: 2.0

## C=CC(=O)N(Cc1cccnc1)c1cc(C(F)(F)F)cc(C(F)(F)F)c1 [compound 31]
CYR61 C39 (O00622)
  isoTOP-ABPP reactivity ratio, O00622_C39: 1.2

## O=C(CCl)Nc1ccccc1C1CCCCCC1 [compound 35]
IRF8 C306 (Q02556)
  isoTOP-ABPP reactivity ratio, Q02556_C306: 1.2
KDM4B C694 (O94953); in-vitro_ramos
  isoTOP-ABPP reactivity ratio, O94953_C694: 1.1

## C=CC(=O)N1CCC(c2noc3ccc(F)cc23)CC1 [compound 37]
KDM4B C694 (O94953); in-vitro_ramos
  isoTOP-ABPP reactivity ratio, O94953_C694: 1.1

## C=CC(=O)Nc1cc(F)c(N2CCN(C(=O)OC(C)(C)C)CC2)c(F)c1 [compound 38]
CYR61 C39 (O00622)
  isoTOP-ABPP reactivity ratio, O00622_C39: 0.8
KDM4B C694 (O94953); in-vitro_ramos
  isoTOP-ABPP reactivity ratio, O94953_C694: 2.4

## C=CC(=O)Nc1cc(C)c(Br)cc1C [compound 40]
IRF8 C306 (Q02556)
  isoTOP-ABPP reactivity ratio, Q02556_C306: 0.9

## Cc1ccc(C=C(C#N)C(=O)NCCN2CCOCC2)cc1 [compound 41]
IRF8 C306 (Q02556)
  isoTOP-ABPP reactivity ratio, Q02556_C306: 1.4

## N#CC(=Cc1ccc(-c2ccccc2Cl)o1)C(N)=O [compound 42]
IRF8 C306 (Q02556)
  isoTOP-ABPP reactivity profile ratio, Q02556_C306: 0.9
KDM4B C694 (O94953); in-vitro_ramos
  isoTOP-ABPP reactivity profile ratio, O94953_C694: 0.9

## COc1cc(NC(=O)CCl)cc(OC)c1 [compound 43]
IRF8 C306 (Q02556)
  isoTOP-ABPP reactivity profile ratio, Q02556_C306: 2.7
KDM4B C694 (O94953); in-vitro_ramos_231
  isoTOP-ABPP reactivity profile ratio, O94953_C694: 20.0

## C=CC(=O)N(c1ccccc1)C1CCCCC1 [compound 46]
CYR61 C39 (O00622)
  isoTOP-ABPP reactivity profile ratio, O00622_C39: 1.9

## O=C(CCl)N1CCc2cc(Br)ccc21 [compound 50]
CYR61 C39 (O00622)
  isoTOP-ABPP reactivity profile ratio, O00622_C39: 2.3

## O=C(CCl)Nc1cccc2ncccc12 [compound 51]
IRF8 C306 (Q02556)
  isoTOP-ABPP reactivity profile ratio, Q02556_C306: 1.5
KDM4B C694 (O94953); in-vitro_ramos
  isoTOP-ABPP reactivity profile ratio, O94953_C694: 1.4

## O=C(CCl)Nc1ccc(-c2ccccc2)cc1 [compound 52]
KDM4B C694 (O94953); in-vitro_ramos
  isoTOP-ABPP reactivity profile ratio, O94953_C694: 1.4
